According to ChEMBL document CHEMBL4152281, “Synthesis, characterization and biological evaluation of tertiary sulfonamide derivatives of pyridyl-indole based heteroaryl chalcone as potential carbonic anhydrase IX inhibitors and anticancer agents” (Eur J Med Chem, 2018):

How the values were obtained:
HepG2 = assay: Antiproliferative activity against human HepG2 cells after 48 hrs by MTT assay; type: functional, cell-based; settings: HepG2, 48 h
HEK293 = assay: Antiproliferative activity against HEK293 cells after 48 hrs by MTT assay; type: cell-based; settings: Homo sapiens, HEK293, 48 h
Carbonic anhydrase 9 = Carbonic anhydrase 9 (Homo sapiens, UniProt Q16790); assay: Inhibition of human carbonic anhydrase 9 expressed in Escherichia coli BL21 D3 strain using p-nitrophenyl acetate as substrate by UV/visible spectrophotometry
MCF7 [1] = assay: Antiproliferative activity against human MCF7 cells after 48 hrs by MTT assay; type: functional, cell-based
Carbonic anhydrase 2 = Carbonic anhydrase 2 (Homo sapiens, UniProt P00918); assay: Inhibition of human carbonic anhydrase 2 expressed in Escherichia coli BL21 D3 strain using p-nitrophenyl acetate as substrate by UV/visible spectrophotometry
MCF7 [2] = assay: Induction of apoptosis in human MCF7 cells assessed as viable cells at IC50 after 24 to 48 hrs by Annexin V-FITC/7-AAD dual staining based flow cytometry (reference value: 95.8%); type: functional
MCF7 [3] = assay: Induction of apoptosis in human MCF7 cells assessed as late apoptotic cells at IC50 after 24 to 48 hrs by Annexin V-FITC/7-AAD dual staining based flow cytometry (reference value: 1.14%); type: functional
MCF7 [4] = assay: Induction of apoptosis in human MCF7 cells assessed as necrotic cells at IC50 after 24 to 48 hrs by Annexin V-FITC/7-AAD dual staining based flow cytometry (reference value: 0.20%); type: functional
MCF7 [5] = assay: Induction of apoptosis in human MCF7 cells assessed as early apoptotic cells at IC50 after 24 to 48 hrs by Annexin V-FITC/7-AAD dual staining based flow cytometry (reference value: 2.74%); type: functional
[6] = Homo sapiens, MCF7, 48 h, read-out: IC50

| Compound | IC50 (HepG2) | IC50 (HEK293) | IC50 (Carbonic anhydrase 9) | IC50 (MCF7 [1]; [6]) | IC50 (Carbonic anhydrase 2) | Activity (MCF7 [2]) | Activity (MCF7 [3]) | IC50 (MCF7 [1]; mcf7) | Activity (MCF7 [4]) | Activity (MCF7 [5]) |
| --- | --- | --- | --- | --- | --- | --- | --- | --- | --- | --- |
| O=C(/C=C/c1cn(S(=O)(=O)c2ccc(Cl)cc2)c2ccccc12)c1ccncc1 | 35.1 µM | > 150 µM | 14.4 µM | 37.5 µM |  |  |  |  |  |  |
| O=C(/C=C/c1cn(S(=O)(=O)c2ccccc2[N+](=O)[O-])c2ccccc12)c1ccncc1 | 31.7 µM | > 150 µM | 57.3 µM | 36.9 µM |  |  |  |  |  |  |
| CCCS(=O)(=O)n1cc(/C=C/C(=O)c2ccncc2)c2ccccc21 | 46.2 µM | > 150 µM | 44.5 µM | 52.4 µM | > 100 µM |  |  |  |  |  |
| O=C(/C=C/c1cn(S(=O)(=O)c2cccc3ccccc23)c2ccccc12)c1ccncc1 | 62.9 µM | > 150 µM | 44.1 µM | 58 µM |  |  |  |  |  |  |
| CC(C)(C)c1ccc(S(=O)(=O)n2cc(/C=C/C(=O)c3ccncc3)c3ccccc32)cc1 | 27 µM | > 150 µM | 0.15 µM | 24 µM |  | 58.26% | 18.9% | Dose-dependent effect | 19.6% | 3.24% |
| COc1cccc2c1C(=O)c1c(O)c3c(c(O)c1C2=O)C[C@@](O)(C(=O)CO)C[C@@H]3O[C@H]1C[C@H](N)[C@H](O)[C@H](C)O1 [DOXORUBICIN] | 18.7 µM | 143 µM |  |  |  |  |  |  |  |  |
| Cc1ccc(S(=O)(=O)n2cc(/C=C/C(=O)c3ccncc3)c3ccccc32)cc1 | 44.8 µM | > 150 µM | 29.9 µM | 48.9 µM |  |  |  |  |  |  |
| O=C(/C=C/c1cn(S(=O)(=O)c2ccc(Cl)cc2Cl)c2ccccc12)c1ccncc1 | 14.8 µM | > 150 µM | 0.13 µM | 12.2 µM |  | 10.6% | 10% | Dose-dependent effect | 0.53% | 78.8% |
| O=C(/C=C/c1cn(S(=O)(=O)c2cccc([N+](=O)[O-])c2)c2ccccc12)c1ccncc1 | 42.6 µM | > 150 µM | 37.6 µM | 36.3 µM |  |  |  |  |  |  |
| O=C(/C=C/c1c[nH]c2ccccc12)c1ccncc1 | 49.3 µM | > 150 µM |  | 45.3 µM |  |  |  |  |  |  |
| COc1ccc(S(=O)(=O)n2cc(/C=C/C(=O)c3ccncc3)c3ccccc32)cc1 | 26 µM | > 150 µM | 26.1 µM | 65.8 µM |  |  |  |  |  |  |
| O=C(/C=C/c1cn(S(=O)(=O)c2ccc([N+](=O)[O-])cc2)c2ccccc12)c1ccncc1 |  |  | 0.15 µM |  |  |  |  |  |  |  |
